Data on 1 sequence can be found in paper PMC4712357 (Molecular informatics, 2015).

This experiment is described as follows: Vesicle rupture assay. It is filed as biochemical. The settings on record: POPC LUVs, relative to Triton X-100 (=100%).

Take EWGQGLTSFWHL [compound 2]: the “rupturing of POPC vesicles” value was 50–75%.
